Test results reported in publication PMC6832705, “Menthol Increases Bendiocarb Efficacy Through Activation of Octopamine Receptors and Protein Kinase A” (Molecules, 2019).

Target: T1, acetylcholinesterase (AChE)
T1 construct: gene ace1; native enzyme in collagenase-treated, dissociated terminal abdominal ganglia of males; not purified
Assay: modified Ellman assay, absorbance […] nm
Type: biochemical, Periplaneta americana
Details: acetylthiocholine (0.1 mM stock), 15 min pre-incubation with bendiocarb, pH 7.2, 30 °C, no menthol; covalent; read-out: ED50 (the source's name)

Structure (SMILES): CNC(=O)Oc1cccc2c1OC(C)(C)O2 [bendiocarb]
- IC50: 100 nM
